Among the test systems are PC-3; ACHN; IGROV-1; M14; SR; A549; UACC-257; T47D; OVCAR-8; RPMI-8226; EKVX; SNB-19; SW-620; CCRF-CEM; OVCAR-3; SK-MEL-2; HOP-92; HCC 2998; TK-10; UACC-62.
Holding throughout (assay): inhibition of tumour cell growth, NCI panel, 48 h

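1) Cells in 96-well plates. 2) Compound, 48 h, 5 concentrations. 3) Linear interpolation between surrounding doses. 4) Unreached endpoint = highest concentration. GI50: concentration for 50% inhibition of growth.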 Activity calls are given as the source filed them. Rule as the data show it: active = GI50 up to about 1.1 µM and inactive = higher.

As to `CCN(CC)Cc1cc(Nc2c3ccccc3nc3c4ccccc4n(C)c23)cc(CN(CC)CC)c1O`, the GI50 in the assay with PC-3 is 2.42 µM (inactive); in the assay on ACHN it was 5.43 µM (inactive); in the assay with IGROV-1, 9.98 µM (inactive); with M14, 1.76 µM (inactive); in the assay on SR, 2.82 µM (inactive); in the assay with A549, 8.43 µM (inactive). The GI50 in the assay with UACC-257 is 2.73 µM (inactive); in the assay with T47D, 3.18 µM (inactive); with OVCAR-8, 4.39 µM (inactive); with RPMI-8226 it was 2.1 µM (inactive); in the assay on EKVX, 4.59 µM (inactive); in the assay on SNB-19, 12.2 µM (inactive). Moreover, the GI50 in the assay on SW-620 was 3.12 µM (inactive); in the assay on CCRF-CEM, 2.4 µM (inactive); in the assay on OVCAR-3 it was 2.43 µM (inactive); in the assay on SK-MEL-2, 2.67 µM (inactive); in the assay on HOP-92 it was 4.6 µM (inactive); with HCC 2998, 5.11 µM (inactive). Besides, the GI50 is 10.9 µM (inactive) in the assay on TK-10 and 2.81 µM (inactive) in the assay with UACC-62.
Take `CCc1c(CNC2=NCCN2)c(CC)c(CNC2=NCCN2)c(CC)c1CNC1=NCCN1`: the GI50 with PC-3, with ACHN, in the assay with IGROV-1, in the assay on M14, with SR and with A549 was > 100 µM (inactive) in each case. The GI50 in the assay with UACC-257, with T47D, with OVCAR-8, in the assay with RPMI-8226, in the assay with EKVX and in the assay with SNB-19 was > 100 µM (inactive) each time. Further, the GI50 in the assay with SW-620, with CCRF-CEM, in the assay with OVCAR-3, in the assay on SK-MEL-2, in the assay with HOP-92 and in the assay on HCC 2998 was > 100 µM (inactive) each time. For the same compound, the GI50 with TK-10 and in the assay on UACC-62 was > 100 µM (inactive) in each case.
On to `COC1/C=C\C=C(/C)C(=O)NC2=CC(=O)C(NCCCl)=C(CC(C)CC(OC)C(O)C(C)/C=C(/C)C1OC(N)=O)C2=O` (stereo not given), for which the GI50 in the assay on PC-3 is 0.656 µM (active); in the assay with ACHN it was 0.281 µM (active); in the assay with IGROV-1, 0.499 µM (active); with M14, 0.0724 µM (active); in the assay with SR, 0.0341 µM (active); in the assay with A549, 0.53 µM (active). The GI50 with UACC-257 is 0.0363 µM (active); in the assay on T47D it was 2.36 µM (inactive); in the assay on OVCAR-8, 0.115 µM (active); in the assay with RPMI-8226, 0.0977 µM (active); with EKVX, 0.592 µM (active); with SNB-19 it was 0.927 µM (active). Besides, the GI50 was 0.0161 µM (active) in the assay with SW-620; 0.0993 µM (active) in the assay with CCRF-CEM; 0.0853 µM (active) in the assay with OVCAR-3; 0.147 µM (active) in the assay with SK-MEL-2; 0.384 µM (active) in the assay with HOP-92; 0.101 µM (active) with HCC 2998. For the same compound, the GI50 with TK-10 was 1.77 µM (inactive); with UACC-62 it was 0.0405 µM (active).
Regarding `CC1=Nc2ccccc2OC(C)=C1/N=N/c1ccc2[nH]c(C)nc2c1`, the GI50 in the assay on PC-3 is > 100 µM (inactive); in the assay on ACHN it was 43.8 µM (inactive); in the assay with IGROV-1, 33.5 µM (inactive); with M14, > 100 µM (inactive); with SR, > 100 µM (inactive); in the assay with A549 it was > 100 µM (inactive). The GI50 in the assay on UACC-257 is > 100 µM (inactive); with T47D, 50.9 µM (inactive); in the assay on OVCAR-8, > 100 µM (inactive); with RPMI-8226 it was > 100 µM (inactive); in the assay with EKVX it was > 100 µM (inactive); in the assay on SNB-19, > 100 µM (inactive). Besides, the GI50 in the assay with SW-620 was > 100 µM (inactive); in the assay on CCRF-CEM, > 100 µM (inactive); with OVCAR-3, > 100 µM (inactive); in the assay on SK-MEL-2 it was > 100 µM (inactive); in the assay on HOP-92, 44.1 µM (inactive); in the assay on HCC 2998 it was > 100 µM (inactive). Further, the GI50 with TK-10 is > 100 µM (inactive); in the assay on UACC-62, 83.4 µM (inactive).
With `CC(C)(C)N1Cc2ccccc2/C(=C/Sc2ccccc2)C1=O`, the GI50 in the assay on PC-3 is 12.6 µM (inactive); in the assay on ACHN, 17.9 µM (inactive); in the assay on IGROV-1 it was 10.1 µM (inactive); in the assay with M14, 8.15 µM (inactive); in the assay on SR it was 2.64 µM (inactive); in the assay on A549 it was 16.2 µM (inactive). In addition, the GI50 in the assay with UACC-257 was 14.3 µM (inactive); in the assay on T47D it was 16.6 µM (inactive); in the assay with OVCAR-8, 8.11 µM (inactive); in the assay with RPMI-8226 it was 5.82 µM (inactive); in the assay with EKVX, 16.8 µM (inactive); with SNB-19, 16 µM (inactive). For the same compound, the GI50 in the assay with SW-620 was 7.21 µM (inactive); in the assay with CCRF-CEM, 5.25 µM (inactive); with OVCAR-3 it was 12 µM (inactive); with SK-MEL-2, 15.2 µM (inactive); with HOP-92, 13.3 µM (inactive); in the assay with HCC 2998, 18.2 µM (inactive). For the same compound, the figures for the GI50 in the assay on TK-10 and in the assay with UACC-62 were 19 µM (inactive) and 7.69 µM (inactive), respectively.
Consider `O=C1CCC2(CC1CC[S+]([O-])c1ccccc1)OCCO2` (stereo not given), for which the GI50 in the assay with PC-3, in the assay with ACHN, in the assay on IGROV-1, in the assay on M14, in the assay on SR and in the assay on A549 was > 100 µM (inactive) each time. The GI50 in the assay on UACC-257, with T47D, in the assay on OVCAR-8, with RPMI-8226, with EKVX and in the assay on SNB-19 was > 100 µM (inactive) in each case. The GI50 with SW-620, in the assay with CCRF-CEM, in the assay on OVCAR-3, in the assay on SK-MEL-2, in the assay on HOP-92 and with HCC 2998 was > 100 µM (inactive) throughout. Besides, the GI50 in the assay on TK-10 and with UACC-62 was > 100 µM (inactive) throughout.
Take `COCC(/N=C\N1CCCc2ccccc2[C@@H]1CCCCl)C(C)(C)C` (stereo not given in full): the GI50 in the assay with PC-3 was 0.482 µM (active); in the assay on ACHN it was 16.9 µM (inactive); in the assay with IGROV-1, 0.353 µM (active); in the assay with M14 it was 4.55 µM (inactive); with SR, 2.05 µM (inactive); in the assay on A549 it was 13.4 µM (inactive). Besides, the GI50 in the assay with UACC-257 is 0.798 µM (active); in the assay with T47D it was 21.2 µM (inactive); with OVCAR-8, 15.5 µM (inactive); in the assay on RPMI-8226, 2.67 µM (inactive); with EKVX it was 17.5 µM (inactive); in the assay on SNB-19 it was 18.7 µM (inactive). The GI50 in the assay with SW-620 was 13 µM (inactive); in the assay on CCRF-CEM, 0.444 µM (active); in the assay with OVCAR-3 it was 0.209 µM (active); in the assay with SK-MEL-2, 17.1 µM (inactive); in the assay with HOP-92, 7.19 µM (inactive); in the assay with HCC 2998, 13.3 µM (inactive). For the same compound, the GI50 in the assay with TK-10 was 9.93 µM (inactive); with UACC-62 it was 10.3 µM (inactive).

These data come from ChEMBL document CHEMBL1201862, “PubChem BioAssay data set” (2004).
